Values of other authors in paper PMC8674003 (CPT: Pharmacometrics & Systems Pharmacology, 2021).
Positions of bridges follow the written chain, without caps; N, C: chain ends. Non-standard residues stand in square brackets, D forms with d. Residues, ends and D or L forms follow the SMILES beside them. *: point of attachment. X1 = CC[C@H](C)CCCCC(=O)*; Dab = NCC[C@H](N)C(=O)O

Key:
[1] = components administered individually to Sprague-Dawley rats
[2] = IV
[3] = M4 (Wang et al.), 2 CMT, Phoenix NLME (7.0), 46 patients

Row | Plasma protein binding, B1 compared with B2 [1] | Q, intercompartmental clearance [2, 3] | V1, typical volume of central compartment [2, 3] | V2, typical volume of peripheral compartment [2, 3] | V, volume of distribution ([2]; M7 (Yu et al.), 1 CMT, NONMEM (7.4), 32 patients) | Compound
1 | higher compared with B2 | – | – | – | – | CC[C@H](C)CCCCC(=O)N[C@@H](CCN)C(=O)N[C@H](C(=O)N[C@@H](CCN)C(=O)N[C@H]1CCNC(=O)[C@H]([C@@H](C)O)NC(=O)[C@H](CCN)NC(=O)[C@H](CCN)NC(=O)[C@H](CC(C)C)NC(=O)[C@@H](Cc2ccccc2)NC(=O)[C@H](CCN)NC1=O)[C@@H](C)O [polymyxin B1] (X1-[Dab]T[Dab][Dab][Dab][dF]L[Dab][Dab]T; lactam 4-C)
2 | – | 13.52 L/h | 6.22 L | 11.92 L | 20.5 L | CC[C@H](C)CCCCC(=O)N[C@@H](CCN)C(=O)N[C@H](C(=O)N[C@@H](CCN)C(=O)N[C@H]1CCNC(=O)[C@H]([C@@H](C)O)NC(=O)[C@H](CCN)NC(=O)[C@H](CCN)NC(=O)[C@H](CC(C)C)NC(=O)[C@@H](Cc2ccccc2)NC(=O)[C@H](CCN)NC1=O)[C@@H](C)O [polymyxin B, Polymyxin B] (X1-[Dab]T[Dab][Dab][Dab][dF]L[Dab][Dab]T; lactam 4-C)
